The subject of the experiment is P388 leukemia ip, CD2F1 mice, survival T/C. Put plainly: NCI In Vivo Anticancer Drug Screen. Data for tumor model P388 Leukemia (intraperitoneal) in CD2F1 (CDF1) mice. Particulars: endpoint: median survival time, higher = longer survival. Put shortly: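 Mice carrying the transplanted tumor received test compound or vehicle. Survival was recorded in each group, and the value is the treated-group measurement divided by that of the vehicle-treated control group.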

The mark [1] stands for this setting: dose: 6.25 mg/kg/injection, schedule: Q01DX005 (ip), vehicle: Klucel (hydroxypropylcellulose) (HPC).
Setting [2] is: dose: 100.0 mg/kg/injection, schedule: Q04DX003 (ip), vehicle: saline.
Where [3] appears, read: dose: 200.0 mg/kg/injection, schedule: Q04DX003 (ip), vehicle: saline.
Setting [4] is: dose: 50.0 mg/kg/injection, schedule: Q01DX009 (ip), vehicle: saline.
The mark [5] stands for this setting: dose: 100.0 mg/kg/injection, schedule: Q01DX009 (ip), vehicle: saline.
The mark [6] stands for this setting: dose: 200.0 mg/kg/injection, schedule: Q01DX009 (ip), vehicle: saline.
Where [7] appears, read: dose: 50.0 mg/kg/injection, schedule: Q01DX009 (ip), vehicle: Klucel (hydroxypropylcellulose) (HPC).
The mark [8] stands for this setting: dose: 100.0 mg/kg/injection, schedule: Q01DX009 (ip), vehicle: Klucel (hydroxypropylcellulose) (HPC).
Setting [9] is: dose: 200.0 mg/kg/injection, schedule: Q01DX009 (ip), vehicle: Klucel (hydroxypropylcellulose) (HPC).
Setting [10] is: dose: 60.0 mg/kg/injection, schedule: Q01DX005 (ip), vehicle: saline with Tween-80.
Setting [11] is: dose: 120.0 mg/kg/injection, schedule: Q01DX005 (ip), vehicle: saline with Tween-80.
The mark [12] stands for this setting: dose: 240.0 mg/kg/injection, schedule: Q01DX005 (ip), vehicle: saline with Tween-80.
The mark [13] stands for this setting: dose: 50.0 mg/kg/injection, schedule: Q01DX005 (ip), vehicle: saline with Tween-80.
The mark [14] stands for this setting: dose: 100.0 mg/kg/injection, schedule: Q01DX005 (ip), vehicle: saline with Tween-80.
The mark [15] stands for this setting: dose: 200.0 mg/kg/injection, schedule: Q01DX005 (ip), vehicle: saline with Tween-80.
Where [16] appears, read: dose: 25.0 mg/kg/injection, schedule: Q01DX005 (ip), vehicle: Klucel (hydroxypropylcellulose) (HPC).
[17] abbreviates: dose: 50.0 mg/kg/injection, schedule: Q01DX005 (ip), vehicle: Klucel (hydroxypropylcellulose) (HPC).
[18] abbreviates: dose: 100.0 mg/kg/injection, schedule: Q01DX005 (ip), vehicle: Klucel (hydroxypropylcellulose) (HPC).
[19] abbreviates: dose: 25.0 mg/kg/injection, schedule: Q01DX009 (ip), vehicle: saline with Tween-80.
Where [20] appears, read: dose: 50.0 mg/kg/injection, schedule: Q01DX009 (ip), vehicle: saline with Tween-80.
[21] abbreviates: dose: 100.0 mg/kg/injection, schedule: Q01DX009 (ip), vehicle: saline with Tween-80.
[22] abbreviates: dose: 200.0 mg/kg/injection, schedule: Q01DX009 (ip), vehicle: saline with Tween-80.
[23] abbreviates: dose: 25.0 mg/kg/injection, schedule: Q04DX002 (ip), vehicle: saline.
[24] abbreviates: dose: 50.0 mg/kg/injection, schedule: Q04DX002 (ip), vehicle: saline.

This passage reports T/C results from PubChem BioAssay AID330 (DTP/NCI, 2004).

Molecules are shown by their SMILES. Where “and” joins values, the source holds several entries; their conditions need not be identical. Equal entries are not always repeated. Inconclusive results and toxic doses are left out. Peptide text beside a SMILES is read from it.

On to `O=P(CCP(=O)(c1ccccc1)c1ccccc1)(c1ccccc1)c1ccccc1.[Cl][Sn]([Cl])([c]1ccccc1)[c]1ccccc1`, for which the T/C is, setting by setting: (dose: 0.79 mg/kg/injection, schedule: Q01DX005 (ip), vehicle: Klucel (hydroxypropylcellulose) (HPC)) 116 % of control and 117 % of control; (dose: 1.56 mg/kg/injection, schedule: Q01DX005 (ip), vehicle: Klucel (hydroxypropylcellulose) (HPC)) 114 % of control and 119 % of control; (dose: 3.12 mg/kg/injection, schedule: Q01DX005 (ip), vehicle: Klucel (hydroxypropylcellulose) (HPC)) 111 % of control and 119 % of control; under setting [1], 113 % of control.

In the case of `CC(=O)Nc1c(-c2ccccc2)[nH]c2ccccc12`, the T/C (dose: 100.0 mg/kg/injection, schedule: Q01DX001 (ip), vehicle: saline with Tween-80) was 99 % of control.

Take `CN(C)C(=S)c1ccccc1NS(=O)(=O)c1ccccc1`: the T/C by setting is: under setting [2], 106 % of control; under setting [3], 100 % of control; (dose: 400.0 mg/kg/injection, schedule: Q04DX003 (ip), vehicle: saline) 97 % of control.

As for `Cc1cc(Br)ccc1N=Cc1ccc(C=Nc2ccc(Br)cc2C)cc1`, the T/C reads like this: under setting [4], 90 % of control; under setting [5], 86 % of control; under setting [6], 92 % of control.

In the case of `O=C(Nc1ccc(Cl)c(Cl)c1)OCc1cccnc1`, the T/C was 95 % of control under setting [7], 97 % of control under setting [8] and 95 % of control under setting [9].

Take `C=C(Br)c1ccc2c(c1)OCO2`: the T/C reads like this: under setting [10], 106 % of control; under setting [11], 102 % of control; under setting [12], 102 % of control.

Consider `O=[N+]([O-])c1ccc(N2c3ccccc3SC23CCCC3)c([N+](=O)[O-])c1`, for which the T/C runs as follows: under setting [13], 100 % of control; under setting [14], 100 % of control; under setting [15], 99 % of control.

Turning to `Nc1ccc(N=N/C(=N\Nc2ccccc2[As](=O)(O)O)C(=O)Nc2ccccc2)c(Cl)c1`, the T/C reads like this: under setting [1], 119 % of control; under setting [16], 117 % of control; under setting [17], 110 % of control and 123 % of control.

For the molecule `CC(=O)OC1C=CCC2C(=O)c3cccc(O)c3C(=O)C12` (stereo not drawn), the T/C runs as follows: (dose: 60.0 mg/kg/injection, schedule: Q01DX005 (ip), vehicle: Klucel (hydroxypropylcellulose) (HPC)) 107 % of control; (dose: 120.0 mg/kg/injection, schedule: Q01DX005 (ip), vehicle: Klucel (hydroxypropylcellulose) (HPC)) 105 % of control; (dose: 240.0 mg/kg/injection, schedule: Q01DX005 (ip), vehicle: Klucel (hydroxypropylcellulose) (HPC)) 97 % of control.

Take `CCCCN(CCCC)CCOc1c[nH]c(=O)[nH]c1=O`: the T/C by setting is: under setting [17], 103 % of control; under setting [18], 106 % of control.

Take `O=c1ccc2nc3ccccc3sc-2c1`: the T/C runs as follows: (dose: 12.5 mg/kg/injection, schedule: Q01DX009 (ip), vehicle: saline with Tween-80) 90 % of control; under setting [19], 104 % of control; under setting [20], 109 % of control.

As to `COc1cc2c(OC)cc1CCC1=CC(=O)C=C(CC2)C1=O`, the T/C by setting is: under setting [13], 99 % of control; under setting [14], 103 % of control; under setting [15], 92 % of control.

Take `COC(=O)C(CC(C)C)NC(=O)C(Cc1ccc(O)cc1)N(C(=O)OCc1ccccc1)C(=O)OCc1ccccc1` (stereo not drawn): the T/C by setting is: under setting [13], 103 % of control; under setting [14], 94 % of control; under setting [15], 92 % of control.

Regarding `O=C1C(Cl)=C(Nc2ccccc2)C(O)N1c1ccccc1` (stereo not drawn), the T/C runs as follows: under setting [13], 103 % of control; under setting [14], 96 % of control; under setting [15], 92 % of control.

For `CC(C)(C=O)CNC(C)(C)C`, the T/C under setting [19] was 110 % of control; the T/C under setting [20] was 100 % of control and 108 % of control; the T/C under setting [21] was 103 % of control and 105 % of control; the T/C under setting [22] was 91 % of control and 103 % of control.

With `COc1cc2c(c(C(C)(C)C)c1)OC1(O)C2=CC(=O)C=C1C(C)(C)C` (stereo not drawn), the T/C by setting is: under setting [1], 120 % of control; (dose: 12.5 mg/kg/injection, schedule: Q01DX005 (ip), vehicle: Klucel (hydroxypropylcellulose) (HPC)) 120 % of control; under setting [16], 114 % of control; under setting [17], 110 % of control; under setting [18], 107 % of control.

Turning to `CC(C)CC(NC(=O)C(N)CC(=O)O)C(=O)O` (stereo not drawn) (H-Asp-Leu-OH; configuration not given here), the T/C by setting is: under setting [17], 100 % of control; under setting [18], 98 % of control; (dose: 200.0 mg/kg/injection, schedule: Q01DX005 (ip), vehicle: Klucel (hydroxypropylcellulose) (HPC)) 99 % of control.

`OC1(c2ccccc2)C(c2ccccc2)=C(c2ccccc2)C(c2ccc(CCCCCCCCc3ccc(C4=C(c5ccccc5)C(O)(c5ccccc5)C(c5ccccc5)=C4c4ccccc4)cc3)cc2)=C1c1ccccc1` (stereo not drawn): the T/C runs as follows: (dose: 100.0 mg/kg/injection, schedule: Q01DX001 (ip), vehicle: Klucel (hydroxypropylcellulose) (HPC)) 86 % of control; (dose: 200.0 mg/kg/injection, schedule: Q01DX001 (ip), vehicle: Klucel (hydroxypropylcellulose) (HPC)) 89 % of control.

In the case of `CC(C)NC(=O)CN1C(=O)NC(C)(c2ccccc2)C1=O` (stereo not drawn), the T/C is 101 % of control under setting [10], 95 % of control under setting [11] and 94 % of control under setting [12].

For `Cc1ccc(-n2ncc3c(=O)n(-c4cccc(C)c4)c(=O)[nH]c32)cc1`, the T/C by setting is: under setting [7], 99 % of control; under setting [8], 97 % of control; under setting [9], 96 % of control.

In the case of `CC(=O)NNC1=NC(C)(C)CC1`, the T/C is 97 % of control (dose: 100.0 mg/kg/injection, schedule: Q01DX001 (ip), vehicle: saline); 102 % of control (dose: 200.0 mg/kg/injection, schedule: Q01DX001 (ip), vehicle: saline); 102 % of control (dose: 400.0 mg/kg/injection, schedule: Q01DX001 (ip), vehicle: saline).

Turning to `O=NC1C(=O)NC(=S)NC1=O`, the T/C (dose: 12.5 mg/kg/injection, schedule: Q04DX002 (ip), vehicle: saline with Tween-80) was 100 % of control.

Turning to `C/C(=N\N=c1/cc(Cl)n(C)c(=O)n1C)c1ccc(Cl)cc1`, the T/C runs as follows: under setting [7], 102 % of control; under setting [8], 99 % of control.

Take `CC(=O)c1ccccc1N=Nc1ccc(N(CCCl)CCCl)cc1C`: the T/C under setting [19] was 98 % of control; the T/C under setting [20] was 104 % of control and 108 % of control; the T/C under setting [21] was 96 % of control; the T/C under setting [22] is 123 % of control.

Regarding `O=[N+]([O-])c1ccccc1S(=O)(=O)N(CCCCN(S(=O)(=O)c1ccccc1[N+](=O)[O-])S(=O)(=O)c1ccccc1[N+](=O)[O-])S(=O)(=O)c1ccccc1[N+](=O)[O-]`, the T/C reads like this: under setting [10], 93 % of control; under setting [11], 91 % of control; under setting [12], 87 % of control.

As for `O=[N+]([O-])CCCN=NN1CCCCC1`, the T/C is, setting by setting: (dose: 12.5 mg/kg/injection, schedule: Q04DX002 (ip), vehicle: saline) 104 % of control; under setting [23], 107 % of control; under setting [24], 103 % of control.

Regarding `COc1cc(NC(C)=O)c(OC)cc1N`, the T/C is, setting by setting: under setting [23], 104 % of control; under setting [24], 98 % of control.

Take `CC12NC(=O)NC1(C)NC(=O)N2` (stereo not drawn): the T/C runs as follows: under setting [4], 107 % of control; under setting [5], 87 % of control; under setting [2], 103 % of control; under setting [3], 97 % of control.

As for `CCN(CC)CCNN`, the T/C is 100 % of control (dose: 50.0 mg/kg/injection, schedule: Q01DX005 (ip), vehicle: saline); 100 % of control (dose: 100.0 mg/kg/injection, schedule: Q01DX005 (ip), vehicle: saline); 103 % of control (dose: 200.0 mg/kg/injection, schedule: Q01DX005 (ip), vehicle: saline).

For the molecule `CCOCC(=O)OC`, the T/C is 97 % of control under setting [4], 95 % of control under setting [5] and 100 % of control under setting [6].
